Species: Rattus norvegicus
Experiment: Open TG-GATES - Regimen: Single
Format: toxicity, organism-based, Sprague-Dawley
Set-up: regimen Single, gender Male, age 6 weeks
Conditions: in vivo, iv, route intravenous injection; for APTT / Bas / Eos / Fbg / Hb / Ht / Lym / MCH / MCHC / MCV / Mono / Neu / PT / Plat / RBC / Ret / WBC: tissue Blood; for KIDNEY_L / KIDNEY_R / KIDNEY_TOTAL: tissue Kidney; for LIVER: tissue Liver
[1] = 0 mg/kg, 24 h, tissue Plasma, dose level Control
[2] = 1 mg/kg, 3 h, tissue Plasma, dose level Low
[3] = 1 mg/kg, 6 h, tissue Plasma, dose level Low

C[C@@H]1C[C@@H]([C@H](O)CC2CC(=O)NC(=O)C2)C(=O)[C@@H](C)C1 [CYCLOHEXIMIDE]
TBIL [1]: 0.018 mg/dL | TC [1]: 75 mg/dL | TG [1]: 83.2 mg/dL | TP [1]: 5.6 g/dL | gamma-GTP [1]: 1.8 IU/L | TERMINAL_BW (1 mg/kg, 3 h, dose level Low): 216.3 g | APTT (1 mg/kg, 3 h, dose level Low): 20.1 s | Bas (1 mg/kg, 3 h, dose level Low): 0% | Eos (1 mg/kg, 3 h, dose level Low): 0.6% | Fbg (1 mg/kg, 3 h, dose level Low): 275.2 mg/dL | Hb (1 mg/kg, 3 h, dose level Low): 13.1 g/dL | Ht (1 mg/kg, 3 h, dose level Low): 38.5% | Lym (1 mg/kg, 3 h, dose level Low): 73.2% | MCH (1 mg/kg, 3 h, dose level Low): 21.7 pg | MCHC (1 mg/kg, 3 h, dose level Low): 34% | MCV (1 mg/kg, 3 h, dose level Low): 63.7 fL | Mono (1 mg/kg, 3 h, dose level Low): 2.4% | Neu (1 mg/kg, 3 h, dose level Low): 22.2% | PT (1 mg/kg, 3 h, dose level Low): 17.6 s | Plat (1 mg/kg, 3 h, dose level Low): 121.9 x10_4/uL | RBC (1 mg/kg, 3 h, dose level Low): 605.6 x10_4/ul | Ret (1 mg/kg, 3 h, dose level Low): 8.4% | WBC (1 mg/kg, 3 h, dose level Low): 174.9 x10_2/uL | KIDNEY_L (1 mg/kg, 3 h, dose level Low): 0.9 g | KIDNEY_R (1 mg/kg, 3 h, dose level Low): 0.9 g | KIDNEY_TOTAL (1 mg/kg, 3 h, dose level Low): 1.9 g | LIVER (1 mg/kg, 3 h, dose level Low): 9 g | A/G [2]: 1.4 | ALP [2]: 1054.4 IU/L | ALT [2]: 46 IU/L | AST [2]: 86 IU/L | BUN [2]: 23.6 mg/dL | CRE [2]: 0.1 mg/dL | Ca [2]: 9.6 mg/dL | Cl [2]: 107.4 meq/L | DBIL [2]: 0.002 mg/dL | GLC [2]: 145.6 mg/dL | IP [2]: 9.1 mg/dL | K [2]: 4.3 meq/L | LDH [2]: 174 IU/L | Na [2]: 142.2 meq/L | PL [2]: 78.8 mg/dL | RALB [2]: 2.8 g/dL | TBIL [2]: 0.016 mg/dL | TC [2]: 55.2 mg/dL | TG [2]: 61.6 mg/dL | TP [2]: 4.9 g/dL | gamma-GTP [2]: 1.6 IU/L | TERMINAL_BW (1 mg/kg, 6 h, dose level Low): 217.9 g | APTT (1 mg/kg, 6 h, dose level Low): 25.1 s | Bas (1 mg/kg, 6 h, dose level Low): 0% | Eos (1 mg/kg, 6 h, dose level Low): 1% | Fbg (1 mg/kg, 6 h, dose level Low): 276 mg/dL | Hb (1 mg/kg, 6 h, dose level Low): 13.2 g/dL | Ht (1 mg/kg, 6 h, dose level Low): 39.6% | Lym (1 mg/kg, 6 h, dose level Low): 65.2% | MCH (1 mg/kg, 6 h, dose level Low): 21.2 pg | MCHC (1 mg/kg, 6 h, dose level Low): 33.4% | MCV (1 mg/kg, 6 h, dose level Low): 63.4 fL | Mono (1 mg/kg, 6 h, dose level Low): 2.8% | Neu (1 mg/kg, 6 h, dose level Low): 30% | PT (1 mg/kg, 6 h, dose level Low): 19.7 s | Plat (1 mg/kg, 6 h, dose level Low): 107.5 x10_4/uL | RBC (1 mg/kg, 6 h, dose level Low): 625.2 x10_4/ul | Ret (1 mg/kg, 6 h, dose level Low): 7.7% | WBC (1 mg/kg, 6 h, dose level Low): 190 x10_2/uL | KIDNEY_L (1 mg/kg, 6 h, dose level Low): 0.9 g | KIDNEY_R (1 mg/kg, 6 h, dose level Low): 1 g | KIDNEY_TOTAL (1 mg/kg, 6 h, dose level Low): 1.9 g | LIVER (1 mg/kg, 6 h, dose level Low): 8.6 g | A/G [3]: 1.5 | ALP [3]: 1085.8 IU/L | ALT [3]: 45 IU/L | AST [3]: 82.6 IU/L | BUN [3]: 18.2 mg/dL | CRE [3]: 0.1 mg/dL | Ca [3]: 8.6 mg/dL | Cl [3]: 105.4 meq/L | DBIL [3]: 0.004 mg/dL | GLC [3]: 146.2 mg/dL | IP [3]: 9.4 mg/dL | K [3]: 3.6 meq/L | LDH [3]: 164.8 IU/L

Source: ChEMBL document CHEMBL3885861, “Open TG-GATES”
